From PubChem BioAssay (NCI)
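Growth conditions: 96-well plates. Treatment: test compound, 48 hours, 5 concentrations. Analysis: linear interpolation between bracketing concentrations; unreached endpoints set to highest concentration. The concentration for full growth arrest is given as TGI.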

Tests used:
Assay in all cases: NCI tumour cell line growth inhibition, 48 h
MOLT-4 leukemia = test system: MOLT-4 leukemia
SW-620 colon = test system: SW-620 colon
HCT-116 colon = test system: HCT-116 colon
NCI-H226 lung = test system: NCI-H226 lung
CAKI-1 renal = test system: CAKI-1 renal
786-0 renal = test system: 786-0 renal
NCI/ADR-RES ovarian = test system: NCI/ADR-RES ovarian
OVCAR-3 ovarian = test system: OVCAR-3 ovarian
SK-MEL-2 melanoma = test system: SK-MEL-2 melanoma
OVCAR-4 ovarian = test system: OVCAR-4 ovarian
PC-3 prostate = test system: PC-3 prostate
EKVX NSCLC = test system: EKVX NSCLC
HCC-2998 colon = test system: HCC-2998 colon
ACHN renal = test system: ACHN renal
HCT-15 colon = test system: HCT-15 colon
M14 melanoma = test system: M14 melanoma
HS 578T breast = test system: HS 578T breast
UACC-257 melanoma = test system: UACC-257 melanoma
OVCAR-8 ovarian = test system: OVCAR-8 ovarian
HOP-92 NSCLC = test system: HOP-92 NSCLC
SK-MEL-28 melanoma = test system: SK-MEL-28 melanoma
KM12 colon = test system: KM12 colon
NCI-H460 lung = test system: NCI-H460 lung
MDA-MB-231 breast = test system: MDA-MB-231 breast
UACC-62 melanoma = test system: UACC-62 melanoma
A549 NSCLC = test system: A549 NSCLC
MDA-MB-435 = test system: MDA-MB-435
MCF7 breast = test system: MCF7 breast
LOX IMVI melanoma = test system: LOX IMVI melanoma
A498 renal = test system: A498 renal
SF-295 CNS = test system: SF-295 CNS
SNB-75 CNS = test system: SNB-75 CNS
MALME-3M melanoma = test system: MALME-3M melanoma
SN12C renal = test system: SN12C renal
UO-31 renal = test system: UO-31 renal
CCRF-CEM leukemia = test system: CCRF-CEM leukemia
U251 CNS = test system: U251 CNS
DU-145 prostate = test system: DU-145 prostate
SK-MEL-5 melanoma = test system: SK-MEL-5 melanoma
K-562 leukemia = test system: K-562 leukemia
HL-60(TB) leukemia = test system: HL-60(TB) leukemia
HT29 colon = test system: HT29 colon
HOP-62 NSCLC = test system: HOP-62 NSCLC
SF-539 CNS = test system: SF-539 CNS
NCI-H23 lung = test system: NCI-H23 lung
MDA-N = test system: MDA-N
T-47D breast = test system: T-47D breast
BT-549 breast = test system: BT-549 breast
OVCAR-5 ovarian = test system: OVCAR-5 ovarian
SNB-19 CNS = test system: SNB-19 CNS
COLO 205 colon = test system: COLO 205 colon
SK-OV-3 ovarian = test system: SK-OV-3 ovarian
SR leukemia = test system: SR leukemia
IGROV1 ovarian = test system: IGROV1 ovarian
TK-10 renal = test system: TK-10 renal
RPMI-8226 leukemia = test system: RPMI-8226 leukemia
NCI-H522 lung = test system: NCI-H522 lung
SF-268 CNS = test system: SF-268 CNS

Compound: COc1cc2c(cc1OC)CN1CCc3ccccc3CC1C2 (stereo unspecified)
- TGI (MOLT-4 leukemia): > 100 µM
- TGI (SW-620 colon): > 100 µM
- TGI (HCT-116 colon): > 100 µM
- TGI (NCI-H226 lung): > 100 µM
- TGI (CAKI-1 renal): > 100 µM
- TGI (786-0 renal): > 100 µM
- TGI (NCI/ADR-RES ovarian): > 100 µM
- TGI (OVCAR-3 ovarian): > 100 µM
- TGI (SK-MEL-2 melanoma): > 100 µM
- TGI (OVCAR-4 ovarian): 98.2 µM
- TGI (PC-3 prostate): > 100 µM
- TGI (EKVX NSCLC): > 100 µM
- TGI (HCC-2998 colon): > 100 µM
- TGI (ACHN renal): > 100 µM
- TGI (HCT-15 colon): > 100 µM
- TGI (M14 melanoma): > 100 µM
- TGI (HS 578T breast): > 100 µM
- TGI (UACC-257 melanoma): > 100 µM
- TGI (OVCAR-8 ovarian): > 100 µM
- TGI (HOP-92 NSCLC): > 100 µM
- TGI (SK-MEL-28 melanoma): > 100 µM
- TGI (KM12 colon): > 100 µM
- TGI (NCI-H460 lung): > 100 µM
- TGI (MDA-MB-231 breast): > 100 µM
- TGI (UACC-62 melanoma): > 100 µM
- TGI (A549 NSCLC): > 100 µM
- TGI (MDA-MB-435): > 100 µM
- TGI (MCF7 breast): > 100 µM
- TGI (LOX IMVI melanoma): > 100 µM
- TGI (A498 renal): > 100 µM
- TGI (SF-295 CNS): > 100 µM
- TGI (SNB-75 CNS): > 100 µM
- TGI (MALME-3M melanoma): > 100 µM
- TGI (SN12C renal): > 100 µM
- TGI (UO-31 renal): > 100 µM
- TGI (CCRF-CEM leukemia): > 100 µM
- TGI (U251 CNS): > 100 µM
- TGI (DU-145 prostate): > 100 µM
- TGI (SK-MEL-5 melanoma): > 100 µM
- TGI (K-562 leukemia): > 100 µM
- TGI (HL-60(TB) leukemia): > 100 µM
- TGI (HT29 colon): > 100 µM
- TGI (HOP-62 NSCLC): > 100 µM
- TGI (SF-539 CNS): > 100 µM
- TGI (NCI-H23 lung): > 100 µM
- TGI (MDA-N): > 100 µM
- TGI (T-47D breast): 75.6 µM
- TGI (BT-549 breast): > 100 µM
- TGI (OVCAR-5 ovarian): > 100 µM
- TGI (SNB-19 CNS): > 100 µM
- TGI (COLO 205 colon): > 100 µM
- TGI (SK-OV-3 ovarian): > 100 µM
- TGI (SR leukemia): 23.5 µM
- TGI (IGROV1 ovarian): > 100 µM
- TGI (TK-10 renal): 64.3 µM

Compound: Cc1ccc(S(=O)(=O)c2ccsc2NC(=O)c2ccccc2)cc1
- TGI (MOLT-4 leukemia): > 100 µM
- TGI (SW-620 colon): > 100 µM
- TGI (HCT-116 colon): > 100 µM
- TGI (NCI-H226 lung): > 100 µM
- TGI (CAKI-1 renal): 97.4 µM
- TGI (786-0 renal): > 79.6 µM
- TGI (NCI/ADR-RES ovarian): > 100 µM
- TGI (OVCAR-3 ovarian): > 100 µM
- TGI (SK-MEL-2 melanoma): > 100 µM
- TGI (OVCAR-4 ovarian): 73.6 µM
- TGI (PC-3 prostate): > 100 µM
- TGI (EKVX NSCLC): > 100 µM
- TGI (HCC-2998 colon): > 100 µM
- TGI (ACHN renal): > 79.7 µM
- TGI (HCT-15 colon): > 100 µM
- TGI (M14 melanoma): > 100 µM
- TGI (HS 578T breast): 76.2 µM
- TGI (UACC-257 melanoma): > 100 µM
- TGI (OVCAR-8 ovarian): 98.5 µM
- TGI (HOP-92 NSCLC): > 100 µM
- TGI (SK-MEL-28 melanoma): > 100 µM
- TGI (KM12 colon): > 100 µM
- TGI (RPMI-8226 leukemia): > 100 µM
- TGI (NCI-H460 lung): > 100 µM
- TGI (MDA-MB-231 breast): > 79.4 µM
- TGI (UACC-62 melanoma): > 100 µM
- TGI (A549 NSCLC): > 100 µM
- TGI (MDA-MB-435): > 100 µM
- TGI (MCF7 breast): > 100 µM
- TGI (LOX IMVI melanoma): > 100 µM
- TGI (A498 renal): > 100 µM
- TGI (SF-295 CNS): > 100 µM
- TGI (SNB-75 CNS): > 93.3 µM
- TGI (MALME-3M melanoma): > 100 µM
- TGI (SN12C renal): > 100 µM
- TGI (UO-31 renal): > 100 µM
- TGI (U251 CNS): > 100 µM
- TGI (DU-145 prostate): > 100 µM
- TGI (SK-MEL-5 melanoma): > 100 µM
- TGI (K-562 leukemia): > 21.8 µM
- TGI (HT29 colon): > 100 µM
- TGI (HOP-62 NSCLC): 45 µM
- TGI (SF-539 CNS): > 100 µM
- TGI (NCI-H23 lung): > 31.6 µM
- TGI (MDA-N): > 100 µM
- TGI (T-47D breast): > 100 µM
- TGI (BT-549 breast): > 100 µM
- TGI (OVCAR-5 ovarian): > 100 µM
- TGI (NCI-H522 lung): > 100 µM
- TGI (SNB-19 CNS): > 100 µM
- TGI (COLO 205 colon): > 100 µM
- TGI (SK-OV-3 ovarian): > 100 µM
- TGI (SF-268 CNS): > 82.5 µM
- TGI (SR leukemia): > 100 µM
- TGI (IGROV1 ovarian): > 100 µM
- TGI (TK-10 renal): > 100 µM
